Measurements from patent US6673555B1, “Methods of using SCAP antagonists” (SmithKline Beecham Corporation, priority 1999, dated 2004).

Columns and labels:
[1] = tested on: human LDL-receptor promoter; test: LDL-receptor promoter luciferase reporter assay in transfected HepG2 cells; format: cell-based
Excerpt: The human LDL-receptor promoter named p-588 corresponding to nucleotide −588 to +91 relative to the major transcription site was cloned by PCR from human genomic DNA (Clonetech) using SEQ ID NO: 3 […] and SEQ ID NO: 4 […] primers. and inserted into pGL3-basic vector (Promega) at Hind-III and Nco-I sites. The sequencing was identical to published promoter (Genbank L29401). Shorter promoters were obtained by PCR sub-cloning using Kpn-I and Nar-I sites. The primer SEQ ID NO: 5 […] corresponding to luciferase coding sequence was used as reverse primer for all constructs. The following primers were used to produce respectively p-149, p-118, p-70, p-53 and p-31 promoters: SEQ ID NO: 6 […], SEQ ID NO: 7 […], SEQ ID NO: 8 […], SEQ ID NO: 9 […] and SEQ ID NO: 10 […]. A vector containing the 38 bp of the minimal promoter of adenovirus Major Late Promoter (Ham. J. et al., EMBO, 10: 2931-2940 (1991)) was produced using Bgl-II and Hind-III site in pGL3-basic. Four repeats of the SRE sequence present on the human LDL-receptor promoter were introduced in p-MLP vector using Bgl-II site, SEQ ID NO: 11 […] and complementary oligo. HepG2 cells seeded the previous day at 3 10^5 cells per well of 24 well plate were transfected with 1 μg of LDL-promoter containing vector together with p-RL-TK control vector (Promega) using Fugene 6 (Boehringer). HepG2 cells were incubated for 28 hours in the presence of SCAP antagonist and/or 25OH-cholesterol. Firefly luciferase and Renila activity were measured using Dual Luciferase Assay Kit (Promega) and Lumistar (BMG). The ratio of Firefly luciferase to Renila were used to calculate mean and S.D. of tetraplicates.
A vector containing the human LDL-receptor promoter coupled to Firefly luciferase reporter was made. A mixture of the LDL-receptor vector and control pRL-TK vector was used to transfect HepG2 cells. Cells were incubated with 25OH-cholesterol (0.2 or 1 μM) alone or in the presence (black bars) or absence (gray bars) of Example 1 (1 μM) for 28 hours before measurement of luciferase and renila activity. The ratio of luciferase activity versus renila activity was calculated and the mean and SD of triplicates were expressed as percent of control.
Shortening the LDL-receptor promoter in the same reporter vector modifies the relative luciferase activity (FIG. 3A).

[2] = tested on: HepG2 cells; test: Uptake of Dil-LDL by HepG2 cells; format: cell-based; details: 0.5 μM, 24 hours, Dil-LDL 6 μg/ml for last 4 hours, FIG. 5
Procedure: To determine if activation of LDL-receptor promoter also translated into an increase in functional LDL receptors, an LDL uptake assay was set up. HepG2 cells seeded at 8 10^4 cells per 8 well Biocoat slides (Beckton Dickinson) were treated with SCAP antagonist or 25OH-cholesterol for 20h and then incubated with 6 μg/ml of fluorescent Dil-LDL for 4 hours. The amount of fluorescent dye that accumulated in the lysosomes was quantified by fluorescence microscopy using Axioplan-2 Zeiss microscope equipped with DXC950P video camera (Sony) and red fluorescence filters.
HepG2 cells were treated for 24 hours in the presence of 0.5 μM Example 1 or 10 μM 25OH-cholesterol. Dil-LDL (6 μg/ml) were added 4 hours before the end of the incubation. Cells were washed and observed by fluorescence microscopy using rhodamine filters and video camera with fixed settings.

CCOc1cc(CC)ccc1C1CCN(CCCCNC(=O)c2ccc(NC(=O)c3ccc(Cl)cc3)cc2)CC1 [Example 1, 4-(4-Chloro-benzoylamino)-N-{4-[4-(2-ethoxy-4-ethyl-phenyl)-piperidin-1-yl]-butyl}-benzamide]
LDL-receptor promoter activity on co-treatment with 25OH-cholesterol ([1]; 1 μM with 25OH-cholesterol 0.2 or 1 μM, 28 hours, HepG2, FIG. 2): can at least partially antagonise the effects of 25OH-cholesterol on SCAP
LDL-receptor promoter activity (luciferase/renila ratio) ([1]; 1 μM, 28 hours, HepG2, FIG. 2): acts as a transcriptional activators
response of minimal adenovirus Major Late promoter vector (p-MLP) ([1]; 1 μM, HepG2, FIG. 3C): fails to respond
response of p-MLP vector with 4 copies of SRE ([1]; 1 μM, HepG2, FIG. 3C): sufficient to confer the responsiveness
reporter expression from shortened LDL-receptor promoter constructs ([1]; 1 μM, HepG2, p-149 to p-31 constructs, FIG. 3B left): promote expression only for vectors possessing the SRE sequence
LDL uptake (Dil-LDL fluorescence) [2]: markedly increased the LDL uptake
